Measurements as given in PubChem BioAssay AID463199 (Broad Institute, 2010).
Calls of active or inactive are those of the source.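 The calls were made as follows: active = AC50, the dose giving half-maximal effect, exceeds a fixed cutoff for a compound that rescues yeast growth under heat; inactive = the rest, inconclusive results apart.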

system: S. cerevisiae Burl-1 ts mutant growth, BacTiter-Glo, 38.5C 24 h; assay: restored growth of temperature-sensitive Burl-1 yeast – whole organism, S. cerevisiae, Burl-1 ts mutant, luminescence, counter-screen for SUMOylation pathway inhibitor project, dose response (AID 463199)

Row | Compound | AC50
1 | COc1cccc(/C=C2/C(=O)NN(c3ccc(Br)cc3)C2=O)c1O | > 42 µM (inactive)
2 | O=C1c2cccc3c(N4CCCCC4)ccc(c23)C(=O)N1CCO | > 42 µM (inactive)
3 | CC1CC(C)(C)N2C(=O)C3(Nc4ccccc4S3)c3cccc1c32 (stereo not given) | > 42 µM (inactive)
4 | O=C(CN1CCN(Cc2ccc(F)cc2)CC1)NCc1ccccc1 | > 42 µM (inactive)
5 | Cc1ccc(S(=O)(=O)NNC(=O)c2cc3cc4ccccc4nc3s2)cc1 | > 42 µM (inactive)
6 | CCN(CC)S(=O)(=O)c1ccc(NC(=O)C(C)N(c2ccccc2)S(C)(=O)=O)cc1 (stereo not given) | > 42 µM (inactive)
7 | CC(=O)NC1CCCN(O)C(=O)/C=C(\C)CCOC(=O)C(NC(C)=O)CCCN(O)C(=O)/C=C(\C)CCOC(=O)C(NC(C)=O)CCCN(O)C(=O)/C=C(\C)CCOC1=O (stereo not given) | > 42 µM (inactive)
8 | CCCc1nc(NCc2ccccc2)c(C#N)c2c1CCCC2 | > 42 µM (inactive)
9 | COC(=O)c1ccc(CN2CCN(C3CCCCC3)C(CCO)C2)cc1 (stereo not given) | > 42 µM (inactive)
10 | CNC(=O)c1ccccc1S(=O)c1ccccc1COC(C)=O (stereo not given) | > 42 µM (inactive)
11 | CN1CCCC(n2nc(Cc3ccc(Cl)cc3)c3ccccc3c2=O)CC1 (stereo not given) | > 42 µM (inactive)
12 | CC(=O)Nc1cccc2c1C(=O)N(c1ccccc1C)C2=O | > 42 µM (inactive)
13 | O=C(Nc1ccc(OC(F)(F)F)cc1)c1ccc2ccccc2n1 | > 42 µM (inactive)
14 | O=C(CSc1nc2ncccc2[nH]1)NC1CCCCC1 | > 42 µM (inactive)
15 | Nc1nc2ccccc2cc1-c1cccs1 | > 42 µM (inactive)
16 | Cc1ccc(NC(=O)NNC(=O)Cn2nc(-c3ccccc3)c(-c3ccccc3)c(C#N)c2=O)cc1 | > 42 µM (inactive)
17 | O=C(CN1C(=O)NC2(CCCC2)C1=O)Nc1nc2ccccc2[nH]1 | > 42 µM (inactive)
18 | CN(C)C(=O)CN1C(=O)c2cccc3cccc1c23 | > 42 µM (inactive)
19 | O=S(=O)(CCN1CCCCC1)Oc1ccc(Cl)cc1Cl | > 42 µM (inactive)
20 | COc1ccc(-c2cc(C(F)(F)F)n3ncc(C(=O)O)c3n2)cc1OC | > 42 µM (inactive)
21 | CCN(CC)S(=O)(=O)c1cc(NC(=O)COC(=O)CCc2nc3ccccc3s2)ccc1C | > 42 µM (inactive)
22 | Cc1cc(-c2nnc3sc(C4CCCCC4)nn23)n[nH]1 | > 42 µM (inactive)
23 | CCCNCc1cc(OCC)c(OCC(N)=O)cc1Br | > 42 µM (inactive)
24 | COCCn1c(SCC(=O)Nc2nc3ccccc3s2)nnc1-c1ccoc1C | > 42 µM (inactive)
25 | Cn1c(O)c(C(c2ccccn2)c2c(O)n(C)c(=S)n(C)c2=O)c(=O)n(C)c1=S | > 42 µM (inactive)

Row | Compound | AC50
26 | O=C(C1CCCN(S(=O)(=O)c2cnc[nH]2)C1)N1CCN(c2ccc(Cl)cc2)CC1 (stereo not given) | > 42 µM (inactive)
27 | CCn1c(CSCc2ccc(F)cc2)nnc1SCC(=O)NCc1ccccc1 | > 42 µM (inactive)
28 | CC(=O)CSc1ncnc2sc3c(c12)CCCC3 | > 42 µM (inactive)
29 | COc1cc(/C=C(\C#N)C(=O)Nc2ccc(C(=O)O)cc2)ccc1OC(=O)c1cccc(F)c1 | > 42 µM (inactive)
30 | COc1ccc2c(c1)OC[C@H]1[C@H]2N2C(=O)c3ccccc3NC(=O)[C@@]2(C)[C@H]1c1ccccc1 | > 42 µM (inactive)
31 | O=C(Nc1nnc(-c2ccco2)o1)c1ccc(S(=O)(=O)N2CCCC2)cc1 | > 42 µM (inactive)
32 | CC(C)CC(c1nnnn1C1CCCCC1)N1CCN(C(=O)c2ccco2)CC1 (stereo not given) | > 42 µM (inactive)
33 | Fc1ccccc1-n1cc(-c2ccccc2)[nH]c1=S | > 42 µM (inactive)
34 | C=CCn1c(CCC)nc2ccccc21 | > 42 µM (inactive)
35 | Cc1cc(C)cc(OCC(=O)NC2CCCc3ccccc32)c1 (stereo not given) | > 42 µM (inactive)
36 | NC1=NC2(CCCC2)N=C(Nc2ccccc2)N1 | > 42 µM (inactive)
37 | CC1(C)CC(=O)C=C(OC(=O)c2ccc(Cl)cc2)C1 | > 42 µM (inactive)
38 | OC1(c2ccc(F)cc2)CC2CCC(C1)N2Cc1nnnn1C1CCCCC1 (stereo not given) | > 42 µM (inactive)
39 | CC(C)C(=O)NCCSc1c[nH]c2ccccc12 | > 42 µM (inactive)
40 | CCCCOc1ccc(C(=O)Nc2ccc(N3CCN(C)CC3)cc2)cc1 | > 42 µM (inactive)
41 | COC(=O)C12CCC3(SCCS3)C(C(=O)OC)(CCC13SCCS3)C2 | > 42 µM (inactive)
42 | O=c1cc(-c2ccccc2)nc(N2CCN(Cc3ccccc3)CC2)[nH]1 | > 42 µM (inactive)
43 | COc1ccc2nc(NC(=O)c3cc(S(=O)(=O)N4CCOCC4)ccc3C)sc2c1 | > 42 µM (inactive)
44 | Cc1cc(C)n(-c2ccc(C(=O)C(C#N)c3nc4ccccc4n3C)cc2)n1 (stereo not given) | > 42 µM (inactive)
45 | CC(=O)Nc1ccc(S(=O)(=O)N(C)CC(=O)Nc2ccc(Br)cc2F)cc1 | > 42 µM (inactive)
46 | CCOC(=O)c1ccc(NC(=O)c2nc[nH]c2C(=O)N2CCc3ccccc3C2)cc1 | > 42 µM (inactive)
47 | OC(c1ccccc1)(C1CCCCC1)C(CN1CCOCC1)c1ccccc1 (stereo not given) | > 42 µM (inactive)
48 | c1ccc(-c2cc3cc4c(cc3cn2)OCO4)cc1 | > 42 µM (inactive)
49 | COc1ccc(-c2nnc(SCC(C)C)o2)cc1 | > 42 µM (inactive)
50 | CCOC(=O)C1(Cc2cccc(Cl)c2)CCCN(C(=O)CCOC)C1 (stereo not given) | > 42 µM (inactive)

Row | Compound | AC50
51 | O=C1CCCC2=C1C(c1ccncc1)c1c(nc(SCc3ccccc3Cl)[nH]c1=O)N2 (stereo not given) | > 42 µM (inactive)
52 | Cc1cc(C)n2nc(SCC(=O)NC3CCCC(C)C3C)nc2n1 (stereo not given) | > 42 µM (inactive)
53 | O=C(/C=C/c1ccc(F)cc1)NCC1(c2ccccc2)CCOCC1 | > 42 µM (inactive)
54 | COc1ccc(OCC(O)CN2C(=O)NC(C)(C)C2=O)cc1 (stereo not given) | > 42 µM (inactive)
55 | O=C(O)C1C(C(=O)O)C2(Cl)C(Cl)=C(Cl)C1(Cl)C2(Cl)Cl (stereo not given) | > 42 µM (inactive)
56 | O=C(Cc1ccc(F)cc1)Nc1nc(-c2ccc(F)cc2)cs1 | > 42 µM (inactive)
57 | O=C(COC(=O)Cc1ccsc1)NC1CCCCCC1 | > 42 µM (inactive)
58 | CCOc1ccc(/C=N/NC(=O)c2ccc(CSc3nc4ccccc4[nH]3)cc2)cc1 | > 42 µM (inactive)
59 | N#C/C(=C\c1ccc(O)c(O)c1)C(=O)Nc1ccccc1 | > 42 µM (inactive)
60 | COc1ccc(OC)c(NC(=O)CNC(=O)Cn2ccc3ccccc3c2=O)c1 | > 42 µM (inactive)
61 | CCC(CC)C(=O)N1CCCC(c2nc(-c3cccs3)no2)C1 (stereo not given) | > 42 µM (inactive)
62 | O=C(Nc1ccc2[nH]c(=O)[nH]c2c1)c1c(F)c(F)c(F)c(F)c1F | 25.8 µM
63 | CC/C(=N\NC(=O)c1nnn(-c2nonc2N)c1-c1cccs1)c1ccccc1 | > 42 µM (inactive)
64 | CC(=O)/C=C/n1c(=S)oc2ccccc21 | > 42 µM (inactive)
65 | O=C(c1ccco1)N1CCN(C(=O)C2Cc3ccccc3CN2S(=O)(=O)c2ccc(F)cc2)CC1 (stereo not given) | > 42 µM (inactive)
66 | CCOc1ccc(N2CC(C(=O)OC)CC2=O)cc1 (stereo not given) | > 42 µM (inactive)
67 | CCc1ccc(N2C(=O)CC(N3CCC(C(=O)OC)CC3)C2=O)cc1 (stereo not given) | > 42 µM (inactive)
68 | COC(=O)C(CC(C)C)NC(=O)CNC(=O)c1ccccc1C (stereo not given) | > 42 µM (inactive)
69 | CN1C(=O)/C(=C/c2ccc(OCc3ccccc3F)cc2)NC1=S | > 42 µM (inactive)
70 | Cc1cc(-c2ccc(Cl)cc2Cl)c(C#N)c(=O)[nH]1 | > 42 µM (inactive)
71 | COc1ccc(CCC(=O)Nc2ccc3c(c2)OCO3)cc1 | > 42 µM (inactive)
72 | COc1ccccc1N1CCN(C(=O)c2ccc(N3CCCCS3(=O)=O)cc2)CC1 | > 42 µM (inactive)
73 | CCc1nnc2n1N=C(c1ccc(Cl)cc1)CS2 | > 42 µM (inactive)
74 | CC(NC(=O)C1CCCCC1)C(=O)NC1=NCCS1 (stereo not given) | > 42 µM (inactive)
75 | CCOP(=O)(OCC)C(NC(=O)c1cccc(C)c1)C(Cl)(Cl)Cl (stereo not given) | > 42 µM (inactive)

Row | Compound | AC50
76 | CCOC(=O)N1CCN(c2nnnn2-c2ccccc2)CC1 | > 42 µM (inactive)
77 | Nc1nc(SCc2nc3scc(-c4cccs4)c3c(=O)[nH]2)n[nH]1 | > 42 µM (inactive)
78 | CCN1C(=NCc2cccc(Cl)c2)N[C@@H](c2cccc(F)c2)C(C(=O)OC)=C1C | > 42 µM (inactive)
79 | CC1(OC(=O)C2CCCC2)C(=O)C=C2C=C(c3ccsc3)OC=C2C1=O (stereo not given) | > 42 µM (inactive)
80 | CCOC(=O)N1CCC(Nc2nc3ccccc3n3nnnc23)CC1 | > 42 µM (inactive)
81 | Cc1ccc(C(=O)/C=C/Nc2ccccc2C(N)=O)cc1 | > 42 µM (inactive)
82 | CC1=C(C)CS(=O)N(S(=O)(=O)c2ccc(Cl)cc2)C1 (stereo not given) | 12.1 µM
83 | CCOC(=O)c1c(C)[nH]c(O)c1C=Nc1ccccc1 | > 42 µM (inactive)
84 | CCOc1ccc(N(C(C)C(=O)NC(C)CC)S(C)(=O)=O)cc1 (stereo not given) | > 42 µM (inactive)
85 | CCOC(=O)c1cnc2c(C)c(Cl)ccc2c1N1CCOCC1 | > 42 µM (inactive)
86 | CCOC(=O)C1CCN(Cc2ccc(OCc3ccccc3)cc2)CC1 | > 42 µM (inactive)
87 | O=c1[nH]c(=O)n(C2CCCO2)cc1Br (stereo not given) | > 42 µM (inactive)
88 | Cn1c(CCN2CCOCC2)nc2cc(NC(=O)COc3ccccc3)ccc21 | > 42 µM (inactive)
89 | CCOc1ccc(NS(=O)(=O)c2ccc(C(=O)NCc3cccnc3)cc2)cc1 | > 42 µM (inactive)
90 | COc1ccc(C)cc1NC(=O)Cn1c(=O)oc2ccccc21 | > 42 µM (inactive)
91 | Cc1ccc(NC(=O)C(=O)NCC2CCCN2S(=O)(=O)c2cccs2)cc1 (stereo not given) | > 42 µM (inactive)
92 | CCOc1cc(-c2ccccc2)nc(N)n1 | > 42 µM (inactive)
93 | O=c1nc2ccc(Cl)cn2c2ccc(S(=O)(=O)N3CCOCC3)cc12 | > 42 µM (inactive)
94 | Cc1ccc(NC(=O)CCS(=O)(=O)c2ccc3nc(C)sc3c2)cc1 | > 42 µM (inactive)
95 | COc1ccccc1CNc1nc(SC)ncc1CO | > 42 µM (inactive)
96 | CCOC(=O)C1=C(C)Nc2ncnn2C1/C=C/c1ccccc1 (stereo not given) | > 42 µM (inactive)
97 | CCCCCNC(=O)c1ccc2c(=O)n(CC3CCCO3)c(=O)[nH]c2c1 (stereo not given) | 7.49 µM
98 | CCC(=O)Nc1nc(CC(=O)Nc2ccccc2OC)cs1 | > 42 µM (inactive)
99 | O=C(O)CCC(NC(=O)c1ccc(Cl)cc1)C(=O)O (stereo not given) | > 42 µM (inactive)
100 | CCOC(=O)C1CCN(C(=O)COc2ccc(S(=O)(=O)N3CCOCC3)cc2C)CC1 | > 42 µM (inactive)
